Measurements from patent US10508104B2, “6-hydroxy-5-(phenyl/heteroarylsulfonyl)pyrimidin-4(1H)-one as APJ agonists” (Bristol-Myers Squibb Company, priority 2016, dated 2019).

Target: human APJ receptor (Homo sapiens (Human), UniProt P35414)
Assay: Intracellular cAMP accumulation assay (APJ hcAMP, HTRF)
Type: cell-based
Settings: HEK293 cells stably expressing human APJ receptor; inhibition of forskolin-mediated cAMP production; read-out: Human APJ cAMP EC50 Potency range
Outline: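 HEK293 cells stably expressing human APJ, 5,000 per well, incubated 30 min at rt with compound, […] and 2 μM forskolin. cAMP measured by HTRF against a cAMP standard curve as inhibition of forskolin-driven production. EC50 from variable-slope sigmoidal fit.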

human APJ receptor, sequence (P35414 whole entry): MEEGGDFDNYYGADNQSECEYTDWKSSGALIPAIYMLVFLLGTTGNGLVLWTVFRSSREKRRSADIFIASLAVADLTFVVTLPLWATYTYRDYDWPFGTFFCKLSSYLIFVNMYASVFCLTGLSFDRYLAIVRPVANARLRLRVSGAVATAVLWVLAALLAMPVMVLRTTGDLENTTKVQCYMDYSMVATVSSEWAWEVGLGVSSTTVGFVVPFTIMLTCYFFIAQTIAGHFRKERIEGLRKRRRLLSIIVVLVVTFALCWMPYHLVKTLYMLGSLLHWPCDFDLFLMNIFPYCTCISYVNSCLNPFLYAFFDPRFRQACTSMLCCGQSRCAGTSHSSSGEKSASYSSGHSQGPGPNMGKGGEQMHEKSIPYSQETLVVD

| Structure (SMILES) | EC50 |
| --- | --- |
| CCCCc1nc(=O)c(S(=O)(=O)c2ccc(-c3cccnc3C)cc2)c(O)n1[C@@H]1CCc2ccc(C#N)cc21 [Example 547, (3R)-3-{2-butyl-6-hydroxy-5-[4-(2-methylpyridin-3-yl)benzenesulfonyl]-4-oxo-1,4-dihydropyrimidin-1-yl}-2,3-dihydro-1H-indene-5-carbonitrile] | 10 to 100 nM |
| CCCCc1nc(=O)c(S(=O)(=O)c2ccc(-c3ccccc3C(=O)NC)cc2)c(O)n1[C@@H]1CCc2ccc(C#N)cc21 [Example 548, 4′-({2-butyl-1-[(1R)-6-cyano-2,3-dihydro-1H-inden-1-yl]-6-hydroxy-4-oxo-1,4-dihydropyrimidin-5-y1}sulfonyl)-N-methyl-[1,1′-biphenyl]-2-carboxamide] | 10 to 100 nM |
| CCCCc1nc(=O)c(S(=O)(=O)c2ccc(-c3ccnc(F)c3C)cc2)c(O)n1[C@@H](CC)c1cccc(C#N)n1 [Example 549, 6-[(1S)-1-{2-butyl-5-[4-(2-fluoro-3-methylpyridin-4-yI)benzenesulfonyl]-6-hydroxy-4-oxo-1,4-dihydropyrimidin-1-yl}propyl]pyridine-2-carbonitrile] | 0.01 to 10 nM |
| CCCCc1nc(=O)c(S(=O)(=O)c2ccc(-c3ccncc3C)cc2)c(O)n1[C@@H](CC)c1cccc(C#N)n1 [Example 550, 6-[(1S)-1-{2-butyl-6-hydroxy-5-[4-(3-methylpyridin-4-yl)benzenesulfonyl]-4-oxo-1,4-dihydropyrimidin-1-yl}propyl]pyridine-2-carbonitrile] | 0.01 to 10 nM |
| CCCCc1nc(=O)c(S(=O)(=O)c2ccc(-c3ccccc3C(=O)NC)cc2)c(O)n1[C@@H](CC)c1cccc(C#N)n1 [Example 551, 4′-({2-butyl-1-[(1S)-1-(6-cyanopyridin-2-yl)propyl]-6-hydroxy-4-oxo-1,4-dihydropyrimidin-5-yl}sulfonyl)-N-methyl-[1,1′-biphenyl]-2-carboxamide] | 0.01 to 10 nM |

Second part, the compound after the results:

| EC50 | Structure (SMILES) |
| --- | --- |
| 0.01 to 10 nM | CCCCc1nc(=O)c(S(=O)(=O)c2ccc(-c3cccc(C(=O)NC)c3)cc2)c(O)n1[C@@H](CC)c1cccc(C#N)n1 [Example 552, 4′-({2-butyl-1-[(1S)-1-(6-cyanopyridin-2-yl)propyl]-6-hydroxy-4-oxo-1,4-dihydropyrimidin-5-yl}sulfonyl)-N-methyl-[1,1′-biphenyl]-3-carboxamide] |
| 0.01 to 10 nM | CCCCc1nc(=O)c(S(=O)(=O)[C@H]2CC[C@H](O)CC2)c(O)n1-c1c(CC)cccc1CC [Example 553, 2-butyl-1-(2,6-diethylphenyl)-6-hydroxy-5-{[(1r,4r)-4-hydroxycyclohexyl]sulfonyl}-1,4-dihydropyrimidin-4-one] |
| 0.01 to 10 nM | CCCCc1nc(=O)c(S(=O)(=O)[C@H]2CC[C@@H](O)CC2)c(O)n1-c1c(CC)cccc1CC [Example 554, 2-butyl-1-(2,6-diethylphenyl)-6-hydroxy-5-{[(1s,4s)-4-hydroxycyclohexyl]sulfonyl}-1,4-dihydropyrimidin-4-one] |
| 0.01 to 10 nM | CCCCc1nc(=O)c(S(=O)(=O)[C@H]2CC[C@@H](O)CC2)c(O)n1-c1c(OC)cccc1OC [Example 555, 2-butyl-1-(2,6-dimethoxyphenyl)-6-hydroxy-5-{[(1s,4s)-4-hydroxycyclohexyl]sulfonyl}-1,4-dihydropyrimidin-4-one] |
| 0.01 to 10 nM | CCCCc1nc(=O)c(S(=O)(=O)[C@H]2CC[C@H](O)CC2)c(O)n1-c1c(OC)cccc1OC [Example 556, 2-butyl-1-(2,6-dimethoxyphenyl)-6-hydroxy-5-{[(1r,4r)-4-hydroxycyclohexyl]sulfonyl}-1,4-dihydropyrimidin-4-one] |
